Experimental findings from publication PMC6208384 (2018) are described below.

For data set [1], the system named is DIR2s_GAAACAC (RNA, aptamer) GGAUGCGCCUUGAAAAGCCUGCGAAACACGCAGCUGGUGAAUGACAGCUAUGGCGCAUCC
Kind of data set: fluorescence activation. The note with it: 150 mM NaCl, 5 mM MgCl2; 50 mM Tris pH 7.4, 20 °C; loop version (UUCG or GAAACAC) not stated.

Data set [2] has the same test system. Kind of data set: fluorescence competition. The following applies: 150 mM NaCl, 5 mM MgCl2; 50 mM Tris pH 7.4, 20 °C; OTB-SO3 displaced, 500 nM RNA, 600 nM OTB-SO3.
Data set [3] deals with Fab BL3-6, PDB:6DB9_2+PDB:6DB9_3. Kind of data set: filter binding. The following applies: 5 mM Mg2+; no dye mentioned; Filter binding: 50 mM Tris pH 7.4, 150 mM NaCl, 5 mM MgCl2, 0.1 U/uL RNase inhibitor, 2 nM-2 uM Fab, 30 min; RNA refolded at 50 C then RT (binding temperature …).
The subject of data set [4] is DIR2s_GAAACAC (RNA, aptamer) GGAUGCGCCUUGAAAAGCCUGCGAAACACGCAGCUGGUGAAUGACAGCUAUGGCGCAUCC
Kind of data set: fluorescence titration. The following applies: 150 mM NaCl, 5 mM MgCl2; 50 mM Tris pH 7.4, 20 °C; construct assigned from review file b5063.

For data set [5], the system named is DIR2s_WT (UUCG) (RNA, aptamer) GGAUGCGCCUUGAAAAGCCUGCUUCGGCAGCUGGUGAAUGACAGCUAUGGCGCAUCC
Briefly: fluorescence activation. The following applies: 150 mM NaCl, 5 mM MgCl2; 50 mM Tris pH 7.4, 20 °C.

The test system of data set [6] is G39, A40, A41 to U (RNA, aptamer) GGAUGCGCCUUGAAAAGCCUGCGAAACACGCAGCUGGUUUUUGACAGCUAUGGCGCAUCC
Briefly: fluorescence activation. The note with it: 150 mM NaCl, 5 mM MgCl2; 50 mM Tris pH 7.4, 20 °C; RNA 3 µM, dye 6 µM; fluorescence abolished.

Data set [7] has as its system A15C; A40, A41 to G (RNA, aptamer) GGAUGCGCCUUGAACAGCCUGCGAAACACGCAGCUGGUGGGUGACAGCUAUGGCGCAUCC
Briefly: fluorescence activation. The following applies: 150 mM NaCl, 5 mM MgCl2; 50 mM Tris pH 7.4, 20 °C; RNA 3 µM, dye 6 µM; fluorescence abolished.

Data set [8] relates to Abasic G39 (RNA, aptamer, abasic at 39) GGAUGCGCCUUGAAAAGCCUGCGAAACACGCAGCUGGUNAAUGACAGCUAUGGCGCAUCC
Briefly: fluorescence activation. The following applies: 150 mM NaCl, 5 mM MgCl2; 50 mM Tris pH 7.4, 20 °C; RNA 3 µM, dye 6 µM; fluorescence diminished.

The subject of data set [9] is Abasic A40 (RNA, aptamer, abasic at 40) GGAUGCGCCUUGAAAAGCCUGCGAAACACGCAGCUGGUGNAUGACAGCUAUGGCGCAUCC
Briefly: fluorescence activation. The following applies: 150 mM NaCl, 5 mM MgCl2; 50 mM Tris pH 7.4, 20 °C; RNA 3 µM, dye 6 µM; fluorescence diminished.

For data set [10], the system named is A40U (RNA, aptamer) GGAUGCGCCUUGAAAAGCCUGCGAAACACGCAGCUGGUGUAUGACAGCUAUGGCGCAUCC
Briefly: fluorescence activation. The note with it: 150 mM NaCl, 5 mM MgCl2; 50 mM Tris pH 7.4, 20 °C; RNA 3 µM, dye 6 µM; fluorescence as WT.

Data set [11] concerns A41U (RNA, aptamer) GGAUGCGCCUUGAAAAGCCUGCGAAACACGCAGCUGGUGAUUGACAGCUAUGGCGCAUCC
Kind of data set: fluorescence activation. The following applies: 150 mM NaCl, 5 mM MgCl2; 50 mM Tris pH 7.4, 20 °C; RNA 3 µM, dye 6 µM; fluorescence as WT.

Data set [12] relates to 5 bp P1 (RNA, aptamer) GGCCUUGAAAAGCCUGCGAAACACGCAGCUGGUGAAUGACAGCUAUGGCC
Briefly: fluorescence activation. The following applies: 150 mM NaCl, 5 mM MgCl2; 50 mM Tris pH 7.4, 20 °C; RNA 3 µM, dye 6 µM; fluorescence as WT.

For data set [13], the system named is 0 bp P1 (RNA, aptamer) GGAAAAGCCCGCGAAACACGCAGCUGGUGAAUGACAGCU
Kind of data set: fluorescence activation. The following applies: 150 mM NaCl, 5 mM MgCl2; 50 mM Tris pH 7.4, 20 °C; RNA 3 µM, dye 6 µM; ca. 80% of WT fluorescence.

Data set [14] deals with DIR2s_GAAACAC (RNA, aptamer) GGAUGCGCCUUGAAAAGCCUGCGAAACACGCAGCUGGUGAAUGACAGCUAUGGCGCAUCC
Kind of data set: X-ray crystal structure, 1.86 Å. The note with it: 10 mM MgCl2, 1.8 M Li2SO4; 50 mM MES pH 5.6; ternary complex with Fab BL3-6.

Regarding `CN1C=CC(=Cc2sc3ccccc3[n+]2CC(=O)NCCOCCOCCOCCNC(=O)CCCC[C@@H]2SC[C@@H]3NC(=O)N[C@@H]32)c2ccccc21`, the binding result in data set [1] is given as “yes”.
As to `CN1C(=CC=Cc2cc[n+](CCCS(=O)(=O)[O-])c3ccccc23)C(C)(C)c2ccccc21`, in data set [2], the binding entry is “yes”.
“GGAUGCGCCUUGAAAAGCCUGCGAAACACGCAGCUGGUGAAUGACAGCUAUGGCGCAUCC [DIR2s_GAAACAC RNA]” came in with a Kd in [3] of 67 nM.
In turn, `CN1/C(=C/c2sc3ccccc3[n+]2CCCS(=O)(=O)[O-])Oc2ccccc21` gave a Kd in data set [4] of 708 ± 16 nM. Further, the binding result in [5] was “yes”; in data set [6], “no”; in data set [7], “no”; in [8], “weak”; in data set [9] it was “weak”; in data set [10], “yes”. Moreover, the binding result in data set [11], in [12], in data set [13] and in [14] was “yes” in each case.

For orientation: Kd means a measure of binding affinity in units of concentration.
